Measured values taken from PubChem BioAssay AID248 (DTP/NCI, 2004).
“And” between values parts separate entries of the source, which are not always exact repeats. Identical values can stand only once. Inconclusive results and toxic doses are left out. Cut-off read from the data, not from the text of the source: active = T/C of 150% or more; inactive = T/C below 125%.

System: L1210 leukemia ip in BDF1 mice, survival T/C
Experiment: NCI In Vivo Anticancer Drug Screen. Data for tumor model L1210 Leukemia (intraperitoneal) in B6D2F1 (BDF1) mice
Conditions: endpoint: mean survival time, higher = longer survival
Procedure, shortened: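 Mice bearing the transplanted tumor received compound or vehicle. Survival of the treated group was divided by that of the vehicle-treated control group to give the ratio.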

[1] = dose: 50.0 mg/kg/injection, schedule: Q01DX009 (ip), vehicle: saline with Tween-80
[2] = dose: 100.0 mg/kg/injection, schedule: Q01DX001 (ip), vehicle: saline with Tween-80
[3] = dose: 100.0 mg/kg/injection, schedule: Q01DX009 (ip), vehicle: saline with Tween-80
[4] = dose: 100.0 mg/kg/injection, schedule: Q04DX003 (ip), vehicle: saline with Tween-80
[5] = dose: 200.0 mg/kg/injection, schedule: Q01DX001 (ip), vehicle: saline with Tween-80
[6] = dose: 200.0 mg/kg/injection, schedule: Q01DX009 (ip), vehicle: saline with Tween-80
[7] = dose: 200.0 mg/kg/injection, schedule: Q04DX003 (ip), vehicle: saline with Tween-80
[8] = dose: 400.0 mg/kg/injection, schedule: Q01DX001 (ip), vehicle: saline with Tween-80
[9] = dose: 400.0 mg/kg/injection, schedule: Q04DX003 (ip), vehicle: saline with Tween-80
[10] = dose: 100.0 mg/kg/injection, schedule: Q01DX001 (ip), vehicle: saline
[11] = dose: 200.0 mg/kg/injection, schedule: Q01DX001 (ip), vehicle: saline
[12] = dose: 100.0 mg/kg/injection, schedule: Q04DX003 (ip), vehicle: saline
[13] = dose: 200.0 mg/kg/injection, schedule: Q04DX003 (ip), vehicle: saline
[14] = dose: 400.0 mg/kg/injection, schedule: Q04DX003 (ip), vehicle: saline
[15] = dose: 50.0 mg/kg/injection, schedule: Q01DX001 (ip), vehicle: saline
[16] = dose: 400.0 mg/kg/injection, schedule: Q01DX001 (ip), vehicle: saline

Measured: T/C

C[C@]12CC[C@@H]3c4ccc(O)cc4CC[C@H]3[C@@H]1CC[C@@H]2OC(=O)CCC1CCCC1
inactive: dose: 60.0 mg/kg/injection, schedule: Q04DX003 (sc), vehicle: steriod suspending solution 104 % of control | dose: 100.0 mg/kg/injection, schedule: Q01DX001 (sc), vehicle: steriod suspending solution 107 % of control | dose: 120.0 mg/kg/injection, schedule: Q04DX003 (sc), vehicle: steriod suspending solution 104 % of control | dose: 200.0 mg/kg/injection, schedule: Q01DX001 (sc), vehicle: steriod suspending solution 113 % of control | dose: 240.0 mg/kg/injection, schedule: Q04DX003 (sc), vehicle: steriod suspending solution 100 % of control | dose: 400.0 mg/kg/injection, schedule: Q01DX001 (sc), vehicle: steriod suspending solution 107 % of control

O=C(c1ccccc1[N+](=O)[O-])C(Br)C(Br)c1cccc2ccccc12 (stereo not drawn)
inactive: [1] 96 % of control and 91 % of control | [2] 96 % of control | [3] 93 % of control and 94 % of control | dose: 100.0 mg/kg/injection, schedule: Q04DX002 (ip), vehicle: saline with Tween-80 93 % of control | [4] 90 % of control | [5] 96 % of control | [6] 86 % of control and 89 % of control | dose: 200.0 mg/kg/injection, schedule: Q04DX002 (ip), vehicle: saline with Tween-80 88 % of control and 90 % of control | [7] 91 % of control | [8] 100 % of control | [9] 88 % of control

CC(C)C1SC(=S)NC1=O (stereo not drawn)
inactive: [10] 88 % of control | [11] 95 % of control

NC(=O)C(O)c1ccccc1 (stereo not drawn)
inactive: [12] 96 % of control | [13] 94 % of control | [14] 100 % of control

Nc1cc(Cl)cc(Cl)c1C(=O)O
inactive: dose: 50.0 mg/kg/injection, schedule: Q01DX009 (ip), vehicle: other 100 % of control | dose: 100.0 mg/kg/injection, schedule: Q01DX009 (ip), vehicle: other 94 % of control | [12] 90 % of control | [13] 90 % of control

COc1ccc(OC)c(C2C(C#N)C(C=O)NC(C=O)C2C#N)c1 (stereo not drawn)
inactive: dose: 100.0 mg/kg/injection, schedule: Q04DX003 (ip), vehicle: other 107 % of control | dose: 200.0 mg/kg/injection, schedule: Q04DX003 (ip), vehicle: other 109 % of control | dose: 400.0 mg/kg/injection, schedule: Q04DX003 (ip), vehicle: other 107 % of control

c1ccc(CN2CCN(Cc3ccccc3)C2c2ccccc2)cc1
inactive: dose: 25.0 mg/kg/injection, schedule: Q01DX009 (ip), vehicle: saline with Tween-80 97 % of control | [1] 103 % of control | [3] 106 % of control | [6] 105 % of control | dose: 400.0 mg/kg/injection, schedule: Q01DX009 (ip), vehicle: saline with Tween-80 106 % of control

O=C1NC(Cc2ccccc2)C(=O)O1 (stereo not drawn)
inactive: [12] 100 % of control | [13] 91 % of control | [14] 93 % of control

Cc1ccc(Cl)cc1NS(=O)(=O)c1ccccc1[N+](=O)[O-]
inactive: dose: 100.0 mg/kg/injection, schedule: Q01DX009 (ip), vehicle: Klucel (hydroxypropylcellulose) (HPC) 93 % of control | dose: 200.0 mg/kg/injection, schedule: Q01DX009 (ip), vehicle: Klucel (hydroxypropylcellulose) (HPC) 93 % of control | dose: 400.0 mg/kg/injection, schedule: Q01DX009 (ip), vehicle: Klucel (hydroxypropylcellulose) (HPC) 96 % of control

Cc1cnc(Cl)nc1N1CC1
inactive: dose: 1.0 mg/kg/injection, schedule: Q01DX Z (ip), vehicle: methylcellulose (MC) 91 % of control

CCCCCCCCCNC(=O)Nc1cccc(Cl)c1C
inactive: [3] 86 % of control | [4] 90 % of control | [6] 87 % of control | [7] 90 % of control | [9] 90 % of control

CCC(C)C(CCCCN(C)C)(CNC(=O)CN(CC)CC)c1cccc2ccccc12 (stereo not drawn)
inactive: dose: 100.0 mg/kg/injection, schedule: Q01DX009 (ip), vehicle: saline 99 % of control

CCCCCCCCCC(=O)N1C(C)CCCC1C (stereo not drawn)
inactive: dose: 100.0 mg/kg/injection, schedule: Q04DX002 (ip), vehicle: saline 94 % of control | dose: 200.0 mg/kg/injection, schedule: Q04DX002 (ip), vehicle: saline 105 % of control | dose: 400.0 mg/kg/injection, schedule: Q04DX002 (ip), vehicle: saline 105 % of control

C1CN(C[C@H]2COC[C@@H](CN3CCOCC3)O2)CCO1
inactive: dose: 75.0 mg/kg/injection, schedule: Q04DX003 (ip), vehicle: saline 98 % of control | dose: 150.0 mg/kg/injection, schedule: Q04DX003 (ip), vehicle: saline 106 % of control | dose: 300.0 mg/kg/injection, schedule: Q04DX003 (ip), vehicle: saline 95 % of control

Cc1ccc([N+](=O)[O-])cc1NC(=O)Nc1ccccc1C(N)=O
inactive: dose: 100.0 mg/kg/injection, schedule: Q04DX002 (ip), vehicle: Klucel (hydroxypropylcellulose) (HPC) 114 % of control | dose: 200.0 mg/kg/injection, schedule: Q04DX002 (ip), vehicle: Klucel (hydroxypropylcellulose) (HPC) 103 % of control | dose: 400.0 mg/kg/injection, schedule: Q04DX002 (ip), vehicle: Klucel (hydroxypropylcellulose) (HPC) 94 % of control

CCOC(=O)N1C(C(=O)c2ccccc2)N(Cc2ccccc2)C(c2ccccc2)N1C(=O)OCC (stereo not drawn)
inactive: [15] 105 % of control | [10] 97 % of control | [11] 105 % of control | [16] 100 % of control

CC(=O)Oc1c2ccsc2cc2sccc12
inactive: [2] 96 % of control | [5] 94 % of control | [8] 94 % of control

COc1cccc2c1CCC/C2=N\N(C)C
inactive: dose: 100.0 mg/kg/injection, schedule: Q04DX003 (sc), vehicle: olive oil, sesame oil, peanut oil 107 % of control | dose: 200.0 mg/kg/injection, schedule: Q04DX003 (sc), vehicle: olive oil, sesame oil, peanut oil 105 % of control | dose: 400.0 mg/kg/injection, schedule: Q04DX003 (sc), vehicle: olive oil, sesame oil, peanut oil 109 % of control

Nc1nc(N)nc(CCc2nc(N)nc(N)n2)n1
inactive: dose: 50.0 mg/kg/injection, schedule: Q01DX001 (ip), vehicle: carboxymethylcellulose (CMC) 95 % of control | dose: 100.0 mg/kg/injection, schedule: Q01DX001 (ip), vehicle: carboxymethylcellulose (CMC) 90 % of control | dose: 200.0 mg/kg/injection, schedule: Q01DX001 (ip), vehicle: carboxymethylcellulose (CMC) 87 % of control | dose: 400.0 mg/kg/injection, schedule: Q01DX001 (ip), vehicle: carboxymethylcellulose (CMC) 92 % of control

Cc1cccc(OC(=O)Nc2ccc(C(=O)O)c(O)c2)c1
inactive: dose: 50.0 mg/kg/injection, schedule: Q04DX003 (ip), vehicle: gum acacia 96 % of control and 98 % of control | dose: 100.0 mg/kg/injection, schedule: Q01DX001 (ip), vehicle: gum acacia 104 % of control and 105 % of control | dose: 100.0 mg/kg/injection, schedule: Q01DX009 (ip), vehicle: gum acacia 97 % of control and 88 % of control | dose: 100.0 mg/kg/injection, schedule: Q04DX002 (ip), vehicle: gum acacia 94 % of control and 88 % of control | dose: 100.0 mg/kg/injection, schedule: Q04DX003 (ip), vehicle: gum acacia 101 % of control and 88 % of control | dose: 200.0 mg/kg/injection, schedule: Q01DX001 (ip), vehicle: gum acacia 100 % of control and 107 % of control | dose: 200.0 mg/kg/injection, schedule: Q01DX009 (ip), vehicle: gum acacia 98 % of control and 117 % of control | dose: 200.0 mg/kg/injection, schedule: Q04DX002 (ip), vehicle: gum acacia 95 % of control and 110 % of control | dose: 200.0 mg/kg/injection, schedule: Q04DX003 (ip), vehicle: gum acacia 98 % of control and 101 % of control

Cc1ccc(C)c2c1c1ccccc1n2N=O
inactive: [15] 97 % of control | [10] 100 % of control | [11] 100 % of control | [16] 114 % of control
